Consider 13 compounds from patent US8530460B2, “Azetidine derivatives” (Boehringer Ingelheim International GmbH, priority 2011, dated 2013).

The assay concerns the target human ACC2 (Homo sapiens (Human), UniProt O00763). As to the kind of experiment: ACC2 assay (spectrophotometric 384 well assay, NADH-linked coupled lactate dehydrogenase/pyruvate kinase). The class given is biochemical. The conditions noted are these: hACC2 construct lacking 128 N-terminal amino acids; 25° C., 340 nm, 15 minutes.

Sequence of human ACC2 (O00763 129-2458): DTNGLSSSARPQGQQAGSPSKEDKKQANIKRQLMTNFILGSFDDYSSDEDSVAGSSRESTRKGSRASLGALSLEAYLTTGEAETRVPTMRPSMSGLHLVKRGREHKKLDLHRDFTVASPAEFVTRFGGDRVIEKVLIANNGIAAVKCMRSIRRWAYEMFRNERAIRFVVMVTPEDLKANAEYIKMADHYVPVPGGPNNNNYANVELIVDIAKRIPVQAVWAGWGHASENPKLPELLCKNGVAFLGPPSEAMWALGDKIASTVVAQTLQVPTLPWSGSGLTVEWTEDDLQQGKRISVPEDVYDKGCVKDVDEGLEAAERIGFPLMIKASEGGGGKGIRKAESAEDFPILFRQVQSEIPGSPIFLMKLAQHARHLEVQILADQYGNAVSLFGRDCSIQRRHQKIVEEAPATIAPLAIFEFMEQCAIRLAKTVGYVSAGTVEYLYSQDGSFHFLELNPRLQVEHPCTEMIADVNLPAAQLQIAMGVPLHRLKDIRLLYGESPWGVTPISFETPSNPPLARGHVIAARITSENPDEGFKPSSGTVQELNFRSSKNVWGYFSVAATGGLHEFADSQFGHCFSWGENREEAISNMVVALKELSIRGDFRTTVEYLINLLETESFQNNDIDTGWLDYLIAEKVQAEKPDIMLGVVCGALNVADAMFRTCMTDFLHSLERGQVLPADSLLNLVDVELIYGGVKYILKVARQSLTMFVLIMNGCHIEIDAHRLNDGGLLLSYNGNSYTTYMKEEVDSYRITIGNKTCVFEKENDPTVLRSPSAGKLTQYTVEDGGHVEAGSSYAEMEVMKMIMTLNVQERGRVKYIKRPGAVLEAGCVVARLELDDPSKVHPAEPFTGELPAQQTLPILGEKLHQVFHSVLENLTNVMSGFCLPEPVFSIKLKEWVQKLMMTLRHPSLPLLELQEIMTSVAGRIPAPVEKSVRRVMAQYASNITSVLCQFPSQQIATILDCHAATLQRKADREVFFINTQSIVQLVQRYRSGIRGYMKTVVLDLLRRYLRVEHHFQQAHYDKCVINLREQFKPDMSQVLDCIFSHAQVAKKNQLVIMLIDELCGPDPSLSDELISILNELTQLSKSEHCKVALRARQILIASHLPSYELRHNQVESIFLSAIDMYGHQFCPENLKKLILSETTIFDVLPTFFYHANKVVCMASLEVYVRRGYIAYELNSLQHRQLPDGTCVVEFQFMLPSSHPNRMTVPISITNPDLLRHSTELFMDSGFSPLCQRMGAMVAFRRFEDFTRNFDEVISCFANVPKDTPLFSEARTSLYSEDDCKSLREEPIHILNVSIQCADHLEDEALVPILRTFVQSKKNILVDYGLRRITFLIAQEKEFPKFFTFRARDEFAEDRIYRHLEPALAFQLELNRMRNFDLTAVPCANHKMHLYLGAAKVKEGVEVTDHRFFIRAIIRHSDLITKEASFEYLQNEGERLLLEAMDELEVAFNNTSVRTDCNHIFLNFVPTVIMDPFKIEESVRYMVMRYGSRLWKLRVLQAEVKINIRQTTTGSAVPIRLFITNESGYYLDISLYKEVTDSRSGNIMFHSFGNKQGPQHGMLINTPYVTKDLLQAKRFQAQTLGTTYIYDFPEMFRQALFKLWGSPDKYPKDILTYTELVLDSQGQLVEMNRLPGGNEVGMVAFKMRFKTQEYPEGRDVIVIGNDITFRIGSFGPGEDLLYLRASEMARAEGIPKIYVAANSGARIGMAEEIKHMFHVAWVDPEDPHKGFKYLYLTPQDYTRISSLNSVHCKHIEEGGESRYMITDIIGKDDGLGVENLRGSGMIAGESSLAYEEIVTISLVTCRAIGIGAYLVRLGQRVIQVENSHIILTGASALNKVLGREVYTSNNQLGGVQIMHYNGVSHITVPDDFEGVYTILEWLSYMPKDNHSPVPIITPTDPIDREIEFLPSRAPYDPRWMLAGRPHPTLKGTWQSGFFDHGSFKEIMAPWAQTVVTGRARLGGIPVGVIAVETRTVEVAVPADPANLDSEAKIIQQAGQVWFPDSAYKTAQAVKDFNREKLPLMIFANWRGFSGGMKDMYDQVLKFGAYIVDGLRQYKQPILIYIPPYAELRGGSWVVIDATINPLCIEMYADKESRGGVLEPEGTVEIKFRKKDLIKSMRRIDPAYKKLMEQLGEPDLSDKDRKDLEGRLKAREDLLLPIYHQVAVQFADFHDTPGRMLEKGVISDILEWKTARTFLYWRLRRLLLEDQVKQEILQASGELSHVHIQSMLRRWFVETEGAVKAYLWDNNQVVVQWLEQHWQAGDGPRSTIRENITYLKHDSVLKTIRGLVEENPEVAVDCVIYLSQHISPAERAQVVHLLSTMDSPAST

Consider `COc1ccc(-c2cnc(N3CC(Oc4ccc(C(C)NC(C)=O)cc4)C3)nc2)cc1` (stereo not shown) [Example 3.4], for which the IC50 was determined as 1.47 µM.

For `CCCOc1ccc(N2CC(Oc3ccc([C@H](C)NC(C)=O)cc3)C2)c(C#N)c1` [Example 1.25], the IC50 was 0.58 µM.

Turning to `CCCOc1cccc(N2CC(Oc3ccc([C@H](C)NC(C)=O)cc3)C2)c1` [Example 1.48], inhibition was half-maximal at 1.02 µM (IC50).

`CCCOc1ccc(N2CC(Oc3ccc([C@H](C)NC(=O)CF)cc3)C2)c(OC)c1` [Example 8.2]: half-maximal inhibition (IC50) was put at 2.37 µM.

As for `CC(=O)N[C@@H](C)c1ccc(OC2CN(c3nccc(C(F)(F)F)c3F)C2)cc1` [Example 4.10], 0.37 µM corresponded to half-maximal inhibition (IC50).

Consider `CCCOc1ccc(N2CC(Oc3ccc([C@H](C)NC(C)=O)cc3)C2)c(OC)c1` [Example 1.21], for which the IC50 was 0.19 µM.

In turn, `C[C@H](NC(=O)N(C)C)c1ccc(OC2CN(c3ccc(OC4CC4)cc3)C2)cc1` [Example 1.32] registered an IC50 of 0.19 µM.

`CCOc1ccc(N2CC(Oc3ccc([C@H](C)NC(=O)C4CC=CC4)cc3)C2)cc1` [Example 8.40] gave an IC50 of 0.35 µM.

As to `CC(=O)N[C@@H](C)c1ccc(OC2CN(c3cccc(OCC(C)C)c3)C2)cc1` [Example 1.49], half-maximal inhibition (IC50) was put at 1.13 µM.

The compound `CCC(=O)N[C@@H](C)c1ccc(OC2CN(c3ncc(C4CC4)cn3)C2)cc1` [Example 9, (S)—N-(1-(4-(1-(5-Cyclopropylpyrimidin-2-yl)azetidin-3-yloxy)phenyl)ethyl)-propionamide] yielded an IC50 of 1.1 µM.

`CC(=O)N[C@@H](C)c1ccc(OC2CN(c3nc4ccccc4o3)C2)cc1` [Example 4.3] returned an IC50 of 0.48 µM.

The compound `CC(=O)NC(C)c1ccc(OC2CN(c3ncc(C4CC4)cn3)C2)cc1` (stereo not shown) [Example 6.3] displayed an IC50 of 0.15 µM.

`CCOc1cc(N2CC(Oc3ccc([C@H](C)NC(C)=O)cc3)C2)c(F)cn1` [Example 1.62] had an IC50 of 2.91 µM.
